Source: patent US9028845B2, “Chimeric immunomodulatory compounds and methods of using the same-IV” (Dynavax Technologies Corporation, priority 2001, dated 2015)
“Also recorded” adds a separate entry of the source.

Test system: human PBMCs
Test: Human PBMC cytokine response assay (IFN-γ and IFN-α in cell-free medium by ELISA), with or without cPLGA;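 as to IFN-α (pg/ml) mean: 20 µg/mL compound for 24 hours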;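 as to IFN-γ (pg/ml) mean: 20 µg/mL compound for 24 hours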
Type: cell-based
Details: for IFN-a / IFN-g / IFN-a mean / IFN-g mean: Table 25; for IFN-a mean / IFN-g mean: mean of donors 28250-28253; for immunomodulatory activity (IFN-γ / IFN-α secretion), in words: used alone (no cPLGA)
[1] = donor 28250, polynucleotides/spacers at amounts equivalent to the CIC, spacers alone 9 uM
[2] = mean of donors 110, 112, 119, 120, Table 14
[3] = donor 28066, 20 ug/ml, 24 h, + PLGA = premixed with 100 μg/ml cPLGA
[4] = donor 28067, 20 ug/ml, 24 h, + PLGA = premixed with 100 μg/ml cPLGA
[5] = donor 28068, 20 ug/ml, 24 h, + PLGA = premixed with 100 μg/ml cPLGA
[6] = mean of Donors 3-4, 20 μg/ml, 24 h
[7] = mean of Donors 9-12, 20 μg/ml, 24 h
[8] = mean of donors 28065-28068, 20 ug/ml, 24 h, + PLGA = premixed with 100 μg/ml cPLGA
[9] = mean of donors 28057-28060, Table 16

5′-TCGAGAT-3′-HEG-5′-TCGAGAT-3′-HEG-5′-TCGAGAT-3′ [Compound C-45]
IFN-α (Table 10, donor 28042): 62 pg/mL
IFN-γ (Table 10, donor 28042): 590 pg/mL
IFN-α (Table 10, donor 28043): 123 pg/mL
IFN-γ (Table 10, donor 28043): 1466 pg/mL
IFN-α (Table 10, donor 28044): 152 pg/mL
IFN-γ (Table 10, donor 28044): 984 pg/mL
IFN-α (Table 10, donor 28045): 14 pg/mL
IFN-γ (Table 10, donor 28045): 253 pg/mL
IFN-α mean (Table 10, mean of donors): 88 pg/mL
IFN-γ mean (Table 10, mean of donors): 823 pg/mL
IFN-a (donor 28250): 16 pg/mL
IFN-g [1]: 107 pg/mL
IFN-a (donor 28251): 109 pg/mL
IFN-g (donor 28251): 26 pg/mL
IFN-a (donor 28252): 55 pg/mL
IFN-g (donor 28252): 95 pg/mL
IFN-a (donor 28253): 382 pg/mL
IFN-g (donor 28253): 8 pg/mL
IFN-a mean: 140 pg/mL
IFN-g mean: 59 pg/mL
IFN-α (donor 110, Table 14): 446 pg/mL
IFN-γ (donor 110, Table 14): 880 pg/mL
IFN-α (donor 112, Table 14): 130 pg/mL
IFN-γ (donor 112, Table 14): 192 pg/mL
IFN-α (donor 119, Table 14): 1074 pg/mL
IFN-γ (donor 119, Table 14): 52 pg/mL
IFN-α (donor 120, Table 14): 428 pg/mL
IFN-γ (donor 120, Table 14): 36 pg/mL
IFN-α (pg/ml) mean [2]: 520 pg/mL
IFN-γ (pg/ml) mean [2]: 290 pg/mL
IFN-α induction, in words (used alone): generated more IFN-α than CICs containing a 5′-TCGT-3′

5′-TCGT-3′-HEG-5′-TCGT-3′-HEG-5′-TCGT-3′-HEG-5′-TCGT-3′-HEG-5′-TCGT-3′ [Compound C-44]
IFN-α (Table 10, donor 28042): 0 pg/mL
IFN-γ (Table 10, donor 28042): 238 pg/mL
IFN-α (Table 10, donor 28043): 12 pg/mL
IFN-γ (Table 10, donor 28043): 359 pg/mL
IFN-α (Table 10, donor 28044): 60 pg/mL
IFN-γ (Table 10, donor 28044): 484 pg/mL
IFN-α (Table 10, donor 28045): 1 pg/mL
IFN-γ (Table 10, donor 28045): 51 pg/mL
IFN-α mean (Table 10, mean of donors): 18 pg/mL
IFN-γ mean (Table 10, mean of donors): 283 pg/mL
activity when formulated with cPLGA, in words: induced considerable IFN-γ and IFN-α when formulated with cPLGA
IFN-γ induction, in words (used alone): induce IFN-γ when used alone

5′-TCGTC-3′-HEG-5′-TCGTC-3′-HEG-5′-TCGTC-3′-HEG-5′-TCGTC-3′ [Compound C-43]
IFN-α (Table 10, donor 28042): 0 pg/mL
IFN-γ (Table 10, donor 28042): 128 pg/mL
IFN-α (Table 10, donor 28043): 14 pg/mL
IFN-γ (Table 10, donor 28043): 536 pg/mL
IFN-α (Table 10, donor 28044): 20 pg/mL
IFN-γ (Table 10, donor 28044): 566 pg/mL
IFN-α (Table 10, donor 28045): 0 pg/mL
IFN-γ (Table 10, donor 28045): 16 pg/mL
IFN-α mean (Table 10, mean of donors): 8 pg/mL
IFN-γ mean (Table 10, mean of donors): 312 pg/mL
activity when formulated with cPLGA, in words: induced considerable IFN-γ and IFN-α when formulated with cPLGA
IFN-γ induction, in words (used alone): induce IFN-γ when used alone

5′-TCGTCG-3′ [Compound P-2, reference compound]
IFN-α (pg/ml) Donor 3 (Donor 3, 20 μg/ml, 24 h): 0 pg/mL
IFN-γ (pg/ml) Donor 3 (Donor 3, 20 μg/ml, 24 h): 0 pg/mL
IFN-α (pg/ml) Donor 4 (Donor 4, 20 μg/ml, 24 h): 40 pg/mL
IFN-γ (pg/ml) Donor 4 (Donor 4, 20 μg/ml, 24 h): 4 pg/mL
IFN-α Donor 9 (Donor 9, 20 μg/ml, 24 h): 0
IFN-γ Donor 9 (Donor 9, 20 μg/ml, 24 h): 2
IFN-α Donor 10 (Donor 10, 20 μg/ml, 24 h): 2
IFN-γ Donor 10 (Donor 10, 20 μg/ml, 24 h): 3
IFN-α Donor 11 (Donor 11, 20 μg/ml, 24 h): 1
IFN-γ Donor 11 (Donor 11, 20 μg/ml, 24 h): 1
IFN-α Donor 12 (Donor 12, 20 μg/ml, 24 h): 4
IFN-γ Donor 12 (Donor 12, 20 μg/ml, 24 h): 2
IFN-a (donor 28250): 16 pg/mL
IFN-g [1]: 7 pg/mL
IFN-a (donor 28251): 16 pg/mL
IFN-g (donor 28251): 25 pg/mL
IFN-a (donor 28252): 25 pg/mL
IFN-g (donor 28252): 53 pg/mL
IFN-a (donor 28253): 16 pg/mL
IFN-g (donor 28253): 1 pg/mL
IFN-a mean: 18 pg/mL
IFN-g mean: 22 pg/mL
IFN-γ (pg/ml) 28065 (donor 28065 (high background), 20 ug/ml, 24 h, + PLGA = premixed with 100 μg/ml cPLGA, 1000 = outside assay limits): 79 pg/mL
IFN-α (pg/ml) 28065 (donor 28065, 20 ug/ml, 24 h, + PLGA = premixed with 100 μg/ml cPLGA): 0 pg/mL
IFN-α (pg/ml) 28066 [3]: 3 pg/mL
IFN-γ (pg/ml) 28066 [3]: 1 pg/mL
IFN-α (pg/ml) 28067 [4]: 0 pg/mL
IFN-γ (pg/ml) 28067 [4]: 1 pg/mL
IFN-α (pg/ml) 28068 [5]: 0 pg/mL
IFN-γ (pg/ml) 28068 [5]: 0 pg/mL
IFN-α (pg/ml) mean [6]: 20 pg/mL
IFN-γ (pg/ml) mean [6]: 2 pg/mL
IFN-α mean [7]: 2
IFN-γ mean [7]: 2
IFN-α (pg/ml) mean [8]: 1 pg/mL
IFN-γ (pg/ml) mean [8]: 20 pg/mL
immunomodulatory activity (IFN-γ / IFN-α secretion), in words: did not have immunomodulatory activity; also recorded: had no activity

5′-TCGTCG-3′-(C3)15-5′-T-3′ [Compound C-13]
IFN-α (donor 28057, Table 16): 31 pg/mL
IFN-γ (donor 28057, Table 16): 2 pg/mL
IFN-α (donor 28058, Table 16): 0 pg/mL
IFN-γ (donor 28058, Table 16): 3 pg/mL
IFN-α (donor 28059, Table 16): 249 pg/mL
IFN-γ (donor 28059, Table 16): 12 pg/mL
IFN-α (donor 28060, Table 16): 0 pg/mL
IFN-γ (donor 28060, Table 16): 5 pg/mL
activity when formulated with cPLGA, in words: all had significant activity when formulated on cPLGA
IFN-α (pg/ml) mean [9]: 70 pg/mL
IFN-γ (pg/ml) mean [9]: 6 pg/mL
immunomodulatory activity (IFN-γ / IFN-α secretion), in words: None of the CICs was active when used alone

5′-TCGTCG-3′-(HEG)4-5′-T-3′ [Compound C-16]
IFN-α (donor 28057, Table 16): 0 pg/mL
IFN-γ (donor 28057, Table 16): 1 pg/mL
IFN-α (donor 28058, Table 16): 0 pg/mL
IFN-γ (donor 28058, Table 16): 2 pg/mL
IFN-α (donor 28059, Table 16): 0 pg/mL
IFN-γ (donor 28059, Table 16): 0 pg/mL
IFN-α (donor 28060, Table 16): 0 pg/mL
IFN-γ (donor 28060, Table 16): 6 pg/mL
activity when formulated with cPLGA, in words: all had significant activity when formulated on cPLGA
IFN-α (pg/ml) mean [9]: 0 pg/mL
IFN-γ (pg/ml) mean [9]: 2 pg/mL
immunomodulatory activity (IFN-γ / IFN-α secretion), in words: None of the CICs was active when used alone

5′-TCGTCG-3′-(HME)15-5′-T-3′ [Compound C-14]
IFN-α (donor 28057, Table 16): 0 pg/mL
IFN-γ (donor 28057, Table 16): 3 pg/mL
IFN-α (donor 28058, Table 16): 0 pg/mL
IFN-γ (donor 28058, Table 16): 1 pg/mL
IFN-α (donor 28059, Table 16): 0 pg/mL
IFN-γ (donor 28059, Table 16): 1 pg/mL
IFN-α (donor 28060, Table 16): 0 pg/mL
IFN-γ (donor 28060, Table 16): 3 pg/mL
activity when formulated with cPLGA, in words: all had significant activity when formulated on cPLGA
IFN-α (pg/ml) mean [9]: 0 pg/mL
IFN-γ (pg/ml) mean [9]: 2 pg/mL
immunomodulatory activity (IFN-γ / IFN-α secretion), in words: None of the CICs was active when used alone

5′-TCGTCG-3′-(TEG)8-5′-T-3′ [Compound C-15]
IFN-α (donor 28057, Table 16): 0 pg/mL
IFN-γ (donor 28057, Table 16): 5 pg/mL
IFN-α (donor 28058, Table 16): 0 pg/mL
IFN-γ (donor 28058, Table 16): 3 pg/mL
IFN-α (donor 28059, Table 16): 0 pg/mL
IFN-γ (donor 28059, Table 16): 0 pg/mL
IFN-α (donor 28060, Table 16): 0 pg/mL
IFN-γ (donor 28060, Table 16): 1 pg/mL
activity when formulated with cPLGA, in words: all had significant activity when formulated on cPLGA
IFN-α (pg/ml) mean [9]: 0 pg/mL
IFN-γ (pg/ml) mean [9]: 2 pg/mL
immunomodulatory activity (IFN-γ / IFN-α secretion), in words: None of the CICs was active when used alone

5′-TCGTCG-3′-HEG-5′-ACGTTCG-3′-HEG-5′-AGATGAT-3′-TEG [Compound C-29]
IFN-α (Table 9, donor 28089): 75 pg/mL
IFN-γ (Table 9, donor 28089): 63 pg/mL
IFN-α (Table 9, donor 28090): 92 pg/mL
IFN-γ (Table 9, donor 28090): 50 pg/mL
IFN-α (Table 9, donor 28098): 359 pg/mL
IFN-γ (Table 9, donor 28098): 150 pg/mL
IFN-α (Table 9, donor 28099): 332 pg/mL
IFN-γ (Table 9, donor 28099): 177 pg/mL
IFN-α mean (Table 9, mean of donors): 214 pg/mL
IFN-γ mean (Table 9, mean of donors): 110 pg/mL

5′-TCGTCG-3′-HEG-5′-TCGA-3′ [Compound C-40]
IFN-α (Table 10, donor 28042): 0 pg/mL
IFN-γ (Table 10, donor 28042): 26 pg/mL
IFN-α (Table 10, donor 28043): 26 pg/mL
IFN-γ (Table 10, donor 28043): 55 pg/mL
IFN-α (Table 10, donor 28044): 31 pg/mL
IFN-γ (Table 10, donor 28044): 20 pg/mL
IFN-α (Table 10, donor 28045): 2 pg/mL
IFN-γ (Table 10, donor 28045): 23 pg/mL
IFN-α mean (Table 10, mean of donors): 15 pg/mL
IFN-γ mean (Table 10, mean of donors): 31 pg/mL
IFN-α (donor 110, Table 14): 6 pg/mL
IFN-γ (donor 110, Table 14): 180 pg/mL
IFN-α (donor 112, Table 14): 198 pg/mL
IFN-γ (donor 112, Table 14): 12 pg/mL
IFN-α (donor 119, Table 14): 152 pg/mL
IFN-γ (donor 119, Table 14): 4 pg/mL
IFN-α (donor 120, Table 14): 2 pg/mL
IFN-γ (donor 120, Table 14): 20 pg/mL
activity when formulated with cPLGA, in words: significant activity when formulated with cPLGA
IFN-α (pg/ml) mean [2]: 90 pg/mL
IFN-γ (pg/ml) mean [2]: 54 pg/mL
immunomodulatory activity (IFN-γ / IFN-α secretion), in words: inactive in this experiment
